Data on 13 compounds can be found in PMC12348844, “Anti-Trypanosoma cruzi Potential of New Pyrazole-Imidazoline Derivatives” (Molecules, 2025).

Like-named read-outs stand apart in the source and are kept apart here.

For data set [1], the system named is T. cruzi Dm28c-Luc intracellular amastigotes. Nature of the data set: Anti-T. cruzi in vitro assay, intracellular amastigotes in Vero cells (luminescence). In kind it is cell-based, Trypanosoma cruzi. Conditions: for SI (selectivity index = CC50/IC50): CC50 Vero cells / IC50 intracellular amastigotes. As to the method:
(§1) The genetically modified Trypanosoma cruzi, clone Dm28c (TcI), expressing luciferase (Dm28c-Luc), was kindly provided by Dr. Cristina Henriques from Oswaldo Cruz Institute—Fiocruz. The parasites were maintained using Vero cell cultures in RPMI 1640 medium enriched with 10% FBS. At 4 days post-infection (dpi), the trypomastigotes released into the culture supernatant were harvested, subjected to centrifugation at 800× g for 20 min at 4 °C, and quantified with a Neubauer chamber. The isolated trypomastigotes were subsequently used for phenotypic screening, drug efficacy assessments employing a 3D cardiac model, washout experiments to evaluate reversibility, drug combination studies, and enzymatic assays.
To evaluate the effect of pyrazole-imidazoline derivatives against intracellular amastigotes, Vero cells (1.5 × 10^4 cells/well) were cultured in a white 96-well plate with a clear bottom and subsequently infected with T. cruzi Dm28c-Luc at a 10:1 parasite-to-host cell ratio for 24 h. […] Parasite viability was measured by luminescence following the addition of luciferin (300 µg/mL). Background measurements (non-infected cultures incubated with luciferin, as well as luciferin-only controls) were performed to ensure the signal specifically originates from viable parasites. The IC50 and IC90 values, denoting the concentrations that achieve 50% and 90% reductions in viable parasites, respectively, were calculated using GraphPad Prism 8.2.1 software. Additionally, the selectivity index (SI) was calculated as the cytotoxic concentration (CC50) ratio in mammalian cells to the IC50 against T. cruzi, providing insight into the therapeutic window. Potency against intracellular amastigotes was evaluated using the formula 6—Log10 (IC50).

The subject of data set [2] is T. cruzi Dm28c-Luc trypomastigotes. Kind of data set: Anti-T. cruzi in vitro assay, trypomastigotes (luminescence). In kind it is cell-based. Conditions: Trypanosoma cruzi, 24 h, mean ± SD. As to the method: as §1
Drug susceptibility assays were performed on T. cruzi Dm28c-Luc, a genetically engineered parasite expressing luciferase. The drug screening used both trypomastigotes and intracellular amastigotes. Trypomastigotes (1 × 10^6 parasites/well) were added to white 96-well plates with clear bottoms. […] The luminescence was measured using a Glomax Multi-Detection plate reader (Promega Corporation, Madison, WI, USA).

Data set [3] in a line: Cytotoxicity assay, Vero cells (CellTiter-Glo). In kind it is cell-based. The settings on record: African green monkey, mean ± SD. As to the method: Vero cells, obtained from the Rio de Janeiro Cell Bank (BCRT code 0245) and maintained through weekly subculturing with a dissociation solution containing 0.25% trypsin-EDTA, initiated once the monolayer reached an 80–100% confluence. Following harvesting, the cells were washed and resuspended in RPMI 1640 medium enriched with 10% fetal bovine serum (FBS). Cultures were maintained at 37 °C in a 5% CO2-humidified incubator. These cultures were used for drug screening assays and for producing culture-derived trypomastigotes of T. cruzi.
Cytotoxicity assays were performed using Vero cells, which were seeded at a density of 1.5 × 10^4 cells per well in white 96-well plates with clear bottoms. Following a 24 h adhesion period, the cultures were incubated at 37 °C in a 5% CO2 atmosphere. […] After 72 h of incubation, cell viability was assessed by adding CellTiter-Glo reagent (Promega Corporation, Madison, WI, USA), which induces cell lysis and reacts with the released ATP to produce luminescence. The resulting luminescence was measured using a Glomax Multi-Detection plate reader (Promega Corporation, Madison, WI, USA). The half-maximal inhibitory concentration (CC50) for cell viability was then calculated using GraphPad Prism software version 8.2.1.
For orientation: ATP-based viability assays read luminescence as a measure of living cells.

Data set [4] concerns T. cruzi cysteine protease. Kind of data set: Cysteine protease activity in trypomastigote protein extract (Z-Phe-Arg-AMC). In kind it is biochemical, Trypanosoma cruzi. Conditions: 90 min, 37 °C, 33.3, 100 and 300 µM tested. How it is done:
Total proteins from T. cruzi Dm28c-Luc were extracted using a lysis buffer [100 mM Tris-HCl pH 8.0, 150 mM NaCl, 10% glycerol, 0.5% Triton X-100]. The protein concentration was quantified using the Bradford assay, with bovine serum albumin (BSA) used to establish the standard curve. For the assessment of cysteine protease activity, 5 μg of the protein extract was incubated in an acetate buffer [10 mM sodium acetate, pH 5.0], supplemented with 1 mM dithiothreitol (DTT) in a final volume of 100 μL. The reaction used a fluorogenic peptide substrate, N-benzoyloxycarbonyl-L-phenylalanyl-L-arginine 7-amino-4-methylcoumarin (Z-FR-AMC), at a concentration of 60 μM. Incubation was conducted at 37 °C for 90 min, with relative fluorescence changes measured using a SpectraMax M2e spectrophotometer (Molecular Devices, Sunnyvale, CA, USA). Inhibition assays were performed using three concentrations (33.3, 100, and 300 µM) of the promising candidate and trans-epoxysuccinyl-L-leucylamido(4-guanidino)butane (E-64), each analyzed separately. A control was included using a low DMSO concentration (≤1%). Enzymatic activity was expressed in µmol/min/mg of protein, with residual activity presented as a percentage.

[5] abbreviates: Trypanosoma cruzi, Vero, 72 h, Dm28c-Luc in Vero cells, mean ± SD, read-out: Intracellular Amastigotes IC50.
[6] abbreviates: Trypanosoma cruzi, Vero, intracellular amastigotes, 6 − Log10(IC50), read-out: pIC50 (potency) (converted).
[7] abbreviates: Trypanosoma cruzi, 72 h, Dm28c-Luc in Vero cells, mean ± SD.

For orientation: IC90 means the point of the concentration-response curve where the effect stands at 90%. For orientation: CC50 means the concentration giving 50% cytotoxicity. Higher therefore signals lower toxicity to the cells. Turning to `Nc1c(C2=NCCN2)cnn1-c1ccc(Cl)cc1Cl` [1a, 5-amino-1-(2,4-dichlorophenyl)-4-(4,5-dihydro-1H-imidazol-2-yl)-1H-pyrazole], the “SI (selectivity index = CC50/IC50)” value in data set [1] was more than 12.2. Also, the IC50 in data set [1] (setting [5]) is 40.8 ± 3 µM; in data set [1] (setting [6]), 75.9 µM; in data set [2], more than 100 µM. Further, the IC90 in data set [1] (setting [7]) and in data set [2] was more than 100 µM throughout. This compound came in with a CC50 at 72 h in data set [3] of more than 500 µM.

`FC(F)(F)c1cc(-n2cc(C3=NCCN3)cn2)cc(C(F)(F)F)c1` [1m, 1-((3,5-ditrifluoromethyl)phenyl)-4-(4,5-dihydro-1H-imidazol-2-yl)-1H-pyrazole]: the “SI (selectivity index = CC50/IC50)” value in data set [1] is reported as 3.5. For the same compound, the IC50 was 32.4 ± 5.9 µM in data set [1] (setting [5]), 31.6 µM in data set [1] (setting [6]) and more than 100 µM in data set [2]. In addition, the results for the IC90 in data set [1] (setting [7]) and in data set [2] were 80.7 ± 0.4 µM and more than 100 µM, respectively. Also, the CC50 at 72 h in data set [3] was determined as 114 ± 11.9 µM.

Take `Cc1cc(Cl)ccc1-n1ncc(C2=NCCN2)c1N` [1f, 5-amino-1-(4-chloro-2-methylphenyl)-4-(4,5-dihydro-1H-imidazol-2-yl)-1H-pyrazole]: the “SI (selectivity index = CC50/IC50)” value in data set [1] was more than 6.5. The IC50 in data set [1] (setting [5]) is 76.1 ± 1.2 µM; in data set [1] (setting [6]) it was 79.4 µM; in data set [2], more than 100 µM. In addition, the IC90 in data set [1] (setting [7]) and in data set [2] was more than 100 µM each time. Further, the CC50 at 72 h in data set [3] is more than 500 µM.

Regarding `Cc1ccc(-n2ncc(C3=NCCN3)c2N)cc1Cl` [1e, 5-amino-1-(3-chloro-4-methylphenyl)-4-(4,5-dihydro-1H-imidazol-2-yl)-1H-pyrazole], the “SI (selectivity index = CC50/IC50)” value in data set [1] is reported as more than 7.2. The IC50 is 68.9 ± 8.1 µM in data set [1] (setting [5]), 79.4 µM in data set [1] (setting [6]) and 76.5 ± 10.3 µM in data set [2]. In addition, the concentration for an effect of 90% (IC90) in data set [1] (setting [7]) is 96.6 ± 0.2 µM; in data set [2], more than 100 µM. The compound further gave a CC50 at 72 h in data set [3] of more than 500 µM.

In the case of `Nc1c(C2=NCCN2)cnn1-c1ccc(C(F)(F)F)cc1` [1j, 5-amino-1-(4-trifluoromethylphenyl)-4-(4,5-dihydro-1H-imidazol-2-yl)-1H-pyrazole], the “SI (selectivity index = CC50/IC50)” value in data set [1] is on record as more than 5.6. Moreover, the IC50 is 88.1 ± 0.2 µM in data set [1] (setting [5]), 100 µM in data set [1] (setting [6]) and more than 100 µM in data set [2]. The IC90 in data set [1] (setting [7]) and in data set [2] was more than 100 µM each time. Further, in data set [3], the CC50 at 72 h was more than 500 µM.

For `Nc1c(C2=NCCN2)cnn1-c1cccc(C(F)(F)F)c1` [1i, 5-amino-1-(3-trifluoromethylphenyl)-4-(4,5-dihydro-1H-imidazol-2-yl)-1H-pyrazole], in data set [1], the “SI (selectivity index = CC50/IC50)” value is more than 9.6. Besides, the IC50 in data set [1] (setting [5]) is 51.9 ± 3.6 µM; in data set [1] (setting [6]), 63.1 µM; in data set [2], more than 100 µM. For the same compound, the IC90 in data set [1] (setting [7]) and in data set [2] was more than 100 µM throughout. Further, in data set [3], the CC50 at 72 h was more than 500 µM.

Take `Nc1c(C2=NCCN2)cnn1-c1cccc(F)c1` [1b, 5-amino-1-(3-fluorophenyl)-4-(4,5-dihydro-1H-imidazol-2-yl)-1H-pyrazole]: the IC50 in data set [1] (setting [5]), in data set [1] (setting [6]) and in data set [2] was more than 100 µM throughout. Further, the IC90 in data set [1] (setting [7]) and in data set [2] was more than 100 µM throughout. Also, the CC50 at 72 h in data set [3] was more than 500 µM.

For the compound `Cc1cccc(-n2cc(C3=NCCN3)cn2)c1` [1h, 1-(3-methylphenyl)-4-(4,5-dihydro-1H-imidazol-2-yl)-1H-pyrazole], the IC50 in data set [1] (72 h, Dm28c-Luc in Vero cells, mean ± SD, read-out: Intracellular Amastigotes IC50) is 26.2 ± 3.4 µM; in data set [1] (setting [5]), 26.1 ± 3.4 µM; in data set [1] (setting [6]), 25.1 µM; in data set [2], more than 100 µM. In data set [1], the “SI (selectivity index = CC50/IC50)” value is on record as more than 19.1. Moreover, the IC90 in data set [1] (setting [7]) is 89.7 ± 7.4 µM; in data set [2], more than 100 µM. This compound also yielded a CC50 at 72 h in data set [3] of more than 500 µM.

On to `Nc1c(C2=NCCN2)cnn1-c1cc(C(F)(F)F)cc(C(F)(F)F)c1` [1l, 5-amino-1-((3,5-ditrifluoromethyl)phenyl)-4-(4,5-dihydro-1H-imidazol-2-yl)-1H-pyrazole], for which the “SI (selectivity index = CC50/IC50)” value in data set [1] is listed as 16.7. Further, the IC50 in data set [1] (setting [5]) was 27.7 ± 2 µM; in data set [1] (setting [6]), 31.6 µM; in data set [2], more than 100 µM. In addition, the IC90 was 80.1 ± 11.4 µM in data set [1] (setting [7]) and more than 100 µM in data set [2]. The CC50 at 72 h in data set [3] came out at 464 ± 15.2 µM.

For the compound `Cc1cccc(-n2ncc(C3=NCCN3)c2N)c1` [1g, 5-amino-1-(3-methylphenyl)-4-(4,5-dihydro-1H-imidazol-2-yl)-1H-pyrazole], the “SI (selectivity index = CC50/IC50)” value in data set [1] was more than 6.3. Also, the IC50 in data set [1] (setting [5]) was 78.9 ± 2.2 µM; in data set [1] (setting [6]), 79.4 µM; in data set [2], more than 100 µM. Further, the IC90 in data set [1] (setting [7]) and in data set [2] was more than 100 µM throughout. The compound further displayed a CC50 at 72 h in data set [3] of more than 500 µM.

Regarding `Cc1ccc(-n2cc(C3=NCCN3)cn2)cc1` [1d, 1-(4-methylphenyl)-4-(4,5-dihydro-1H-imidazol-2-yl)-1H-pyrazole], the “SI (selectivity index = CC50/IC50)” value in data set [1] is on record as more than 14.7. Further, the IC50 is 33.9 ± 0.8 µM in data set [1] (setting [5]), 39.8 µM in data set [1] (setting [6]) and more than 100 µM in data set [2]. Also, the IC90 in data set [1] (setting [7]) and in data set [2] was more than 100 µM throughout. Also, the CC50 at 72 h in data set [3] was more than 500 µM.

Take `Cc1ccc(-n2ncc(C3=NCCN3)c2N)cc1` [1c, 5-amino-1-(4-methylphenyl)-4-(4,5-dihydro-1H-imidazol-2-yl)-1H-pyrazole]: the IC50 in data set [1] (setting [5]), in data set [1] (setting [6]) and in data set [2] was more than 100 µM in each case. The IC90 in data set [1] (setting [7]) and in data set [2] was more than 100 µM in each case. In data set [3], this compound displayed a CC50 at 72 h of more than 500 µM.

Consider `CC(C)C[C@H](NC(=O)[C@H]1O[C@@H]1C(=O)O)C(=O)NCCCCN=C(N)N` (relative stereo) [E-64, trans-epoxysuccinyl-L-leucylamido(4-guanidino)butane, reference compound], for which, in data set [4], the “inhibition of cysteine protease activity” value amounted to 92.81%.
